The values that follow come from patent US10252997B2, “Monocyclic compound” (Takeda Pharmaceutical Company Limited, priority 2015, dated 2019).

The test addresses T1, Human ACC1 (Homo sapiens, UniProt Q13085).
T1 construct: His6 (from vector pFAST-BacHTc; purified on Ni-NTA) (N); made in house; host or cells: SF-9 insect cells, recombinant baculovirus BAC-ACC1
The test can be described thus: Measurement of ACC1 inhibitory activity (Malonyl-CoA produced, RapidFire-mass spectrometry). It counts as biochemical. The note with it: 10 μM of the test compound; read-out: ACC1 inhibitory rate (%) at 10 μM. As to the method:
(1) Cloning of Human ACC1 Gene and Preparation of Recombinant Baculovirus
Human ACC1 gene was cloned by PCR using a human liver cDNA library (Clontech) as a template and Primer 1 and Primer 2 shown below. Primer 1 and Primer 2 were prepared by adding SalI, NotI restriction enzyme recognition sequences based on the information of the base sequence of human ACC1 gene (Genbank Accession U19822).
PCR was performed using Pyrobest DNA polymerase (TAKARA BIO INC.). The obtained PCR product was cloned to pT7 Blue vector (Novagen) and after confirmation of the base sequence, digested with restriction enzymes SalI and […]. The obtained DNA fragment was inserted into pFAST-BacHTc (Invitrogen) digested with restriction enzymes SalI and […] to give expression plasmid ACC1/pFAST-BacHTc.
Using the expression plasmid ACC1/pFAST-BacHTc and BAC-TO-BAC Baculovirus Expression System (Invitrogen), virus stock BAC-ACC1 of recombinant Baculovirus was prepared.
(2) Preparation of ACC1 Protein
SF-9 cells (Invitrogen) were inoculated to a medium (10 L) for insect cells (Sf-900IISFM medium (Invitrogen) containing 5% fetal bovine serum (Trace), 50 mg/L Gentamicin (Wako Pure Chemical Industries, Ltd.) and 0.1% Pluronic F-68 (Invitrogen)) at 1.0×10^6 cells/mL, and cultured with shaking in Wave Bioreactor (GE Healthcare) at 27° C., 20 rpm, rocking angle 100, oxygen concentration 30%.
On day 2 of the culture, recombinant Baculovirus BAC-ACC1 was added, and the cells were cultured for 3 days. The culture medium was centrifuged at 4000×g for 10 min to give virus-infected cells. The cells were washed with phosphate buffered saline (Invitrogen) and centrifuged under the same conditions. The obtained cells were cryopreserved at −80° C.
The cryopreserved cells were thawed in ice, and suspended in 800 mL of 25 mM HEPES buffer (pH 7.5) containing 10% Glycerol, 0.3 M NaCl, 1 mM EDTA, 25 mM Sodium β-Glycerophosphate and 1 mM Sodium Orthovanadate, and supplemented with Complete Protease Inhibitor (Roche). The obtained suspension was homogenized two times in a polytron homogenizer (Kinematica) at 20,000 rpm for 20 sec. The obtained cell disruption solution was clarified by centrifugation at 186,000×g for 60 min, and the supernatant was passed through Ni-NTA Superflow Cartridges (5 mL) (QUIAGEN). Furthermore, it was washed with 25 mM HEPES buffer (pH 7.5) containing 20 mM Imidazole and 0.3 M NaCl, and eluted with 25 mM HEPES buffer (pH 7.5) containing 250 mM Imidazol and 0.3 M NaCl. The eluate was concentrated by Amicon Ultra-15 (Nihon Millipore K.K.) having a fraction molecular weight of 50K. The obtained concentrate was subjected to gel filtration with 50 mM HEPES buffer (pH 7.5) containing 10 mM MgCl2, 2 mM dithiothreitol, 10 mM tripotassium citrate and 0.3 M NaCl by using HiLoad 26/60 Superdex200 prep grade gel filtration column (GE Healthcare) to give ACC1. The obtained ACC1 was cryopreserved at −80° C.
(3) Measurement of ACC1 Inhibitory Activity
ACC1 obtained in the above-mentioned (2) was diluted with an enzyme reaction buffer (50 mM HEPES (pH 7.5), 10 mM MgCl2, 10 mM Tripottasium Citrate, 2 mM Dithiothreitol, 0.001% Fatty acid free BSA) to a concentration of 0.2 μg/ml, and the mixture was added to each well of a 384 well assay plate by 10 μl. A test compound dissolved in dimethyl sulfoxide (DMSO) was diluted with an enzyme reaction buffer, and the resulting solution (5 μl) was added to each well. The mixture was incubated at room temperature for 60 min. Then, a substrate solution (50 mM KHCO3, 200 μM ATP, 200 μM Acetyl-CoA, 5 μl) was added to each well, and the mixture was reacted at room temperature for 30 min. The reaction was quenched by adding a reaction quenching liquid (1.3% formic acid, 0.2 μM Malonyl-^13C3-CoA) by 60 μL each to the obtained reaction mixtures (test compound addition group).
In addition, a reaction was performed in the same manner as above and without adding the test compound (test compound non-addition group). […]

In the case of `C[C@@H](COc1cnc(-c2ccc(Oc3cccc(OCC4CC4)c3)cc2)o1)NC(N)=O` [Example 82, 1-((2S)-1-((2-(4-(3-(cyclopropylmethoxy)phenoxy)phenyl)-1,3-oxazol-5-yl)oxy)propan-2-yl)urea], the inhibition at 10 µM is 96%.
